# Assay results: EP2330125A2 (priority 2005, dated 2007)
# Where two headings read alike, the source gives them in different places.
# Experiments:
# [1] = rat, in vivo
# Protocol: (§1) DIO male rats are obtained from Charles River Laboratories, Inc. (Wilmington, MA). […] The animals typically achieve a mean body weight of about 500 g. Levin DIO rats are habituated to caging environment for 7 days. During the 3 nights of habituation, animals receive a single intraperitoneal (IP) injection of vehicle. […] Food intake is measured by an automated food intake measuring system (BioDAQ, Research Diets) at 5 sec intervals throughout the course of the study. Body weight is recorded nightly.
# Values are given as percent inhibition of body weight.
# Values are given as percent inhibition of body weight. […] Body Weight: ∼2% difference is statistically significant.
# [2] = assay type: in vivo, Sprague-Dawley rat (Levin DIO rats); conditions: for percent inhibition of body weight: rat DIO
# Protocol: as §1
# Body composition was measured prior to and after drug treatment using NMR (Echo Medical Systems, Houston, TX). For body composition measurements, rats are briefly placed (~1 min) in a well-ventilated plexiglass tube that was then inserted into a specialized rodent NMR machine. This enabled the calculation of changes in actual grams of fat and dry lean tissue (e.g., grams of body fat after treatment -grams of body fat at baseline = change in grams of body fat) and changes in % body composition for fat and dry lean tissue (e.g., % body fat after treatment -% body fat at baseline = change in % body fat). All data are represented as mean ± SEM. Analysis of variance (ANOVA) and post-hoc tests were used to test for group difference. […] Graphs and results are typically presented as vehicle-corrected changes in percent body weight, body fat and changes in body protein
# Values are as provided as percent inhibition of body weight after infusion for the time periods indicated.
# [3] = rat, in vivo; remark: listed apart in the source
# Protocol: as §1
# Values are given as percent inhibition of body weight. […] Body Weight: ∼2% difference is statistically significant. Food Intake: ∼20% difference is statistically significant.
# [4] = assay type: in vivo, NIH/Swiss mice; set-up: key to percent inhibition of food intake: "ns" means "not significant" compared to vehicle
# Protocol: For studies of the effects of PPF polypeptides on longer-term (chronic) food intake and/or body composition, the amount of food consumed over a period of two weeks was measured. For these studies of the effects of PPF polypeptides on longer-term food intake and/or body composition, mice were housed singly for 1 week prior to the beginning of treatment. Throughout the experiments, food intake and body weight were monitored daily. […] At the end of each study, animals were sacrificed after a 2-4 hr fast by isoflurane overdose. Blood was collected into Na-heparin-flushed syringes by cardiac puncture, and plasma was immediately frozen. In some studies, body composition was determined using dual-energy X-ray absorptiometry (DEXA; PixiMus, GE Lunar). In some studies, body composition (such as the amounts of fat and protein) were measured pre- and post treatment using a rodent NMR machine (EchoMRI-700™), in which animals are placed in a restraining tube and placed in the NMR for 2 minutes, and the amount of fat and lean mass, in grams, is quantified.
# GLP Receptor = assay type: biochemical
# [5] = assay type: in vivo, C57BL/6 mice; conditions: mouse DIO
# Description: An exemplary assay can be one that involves utilization of a diet-induced obese (DIO) mouse model for metabolic disease. […] During the study, the mice can continue to eat their high-fat diet Water can be provided ad libitum throughout the study.
# DIO mice can be implanted with subcutaneous (SC) intrascapular osmotic pumps to deliver either vehicle (50% dimethylsulfoxide (DMSO) in water) or a compound of the invention.
# Body weights and food intake can be measured over regular intervals throughout the study periods. Respiratory quotient (RQ, defined as CO2 production ÷ O2 consumption) and metabolic rate can be determined using whole-animal indirect calorimetry (Oxymax, Columbus Instruments, Columbus, OH). The mice can be euthanized by isoflurane overdose, and an index of adiposity (bilateral epididymal fat pad weight) measured. Moreover, prior to determination of epididymal weight, body composition (lean mass, fat mass) for each mouse can be analyzed using a Dual Energy X-ray Absorptiometry (DEXA) instrument per manufacturer's instructions (Lunar Piximus, GE Imaging System).
# [6] = Gastric emptying (acetaminophen passed); assay type: in vivo, Levin rats
# Description: Values are given as percent inhibition of gastric emptying and percent acetaminophen passed.
# calcitonin receptor = assay type: binding
# [7] = assay type: in vivo, Levin rats
# Description: Values are given as percent reduction of blood glucose level.
# CT receptor = biological target: T1, CT receptor (Rattus norvegicus, UniProt P32214); assay type: cell-based
# T1 construct: host or cells: 'C1A' (not explained)
# T1 sequence (P32214 25-479 isoform P32214-2 limits assumed): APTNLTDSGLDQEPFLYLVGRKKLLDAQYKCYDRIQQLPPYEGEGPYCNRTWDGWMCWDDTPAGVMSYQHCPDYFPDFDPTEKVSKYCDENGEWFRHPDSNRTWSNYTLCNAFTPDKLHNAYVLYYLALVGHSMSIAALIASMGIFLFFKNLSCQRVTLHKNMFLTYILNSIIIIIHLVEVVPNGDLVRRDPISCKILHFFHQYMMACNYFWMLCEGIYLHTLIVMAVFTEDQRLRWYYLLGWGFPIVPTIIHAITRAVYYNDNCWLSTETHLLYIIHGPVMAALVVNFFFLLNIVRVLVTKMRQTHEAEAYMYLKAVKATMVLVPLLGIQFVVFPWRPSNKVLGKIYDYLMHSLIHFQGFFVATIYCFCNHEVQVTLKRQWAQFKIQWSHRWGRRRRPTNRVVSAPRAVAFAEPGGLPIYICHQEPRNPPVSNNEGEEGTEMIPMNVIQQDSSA
# CGRP receptors = biological target: T2, CGRP receptors (Homo sapiens, UniProt O60894+Q16602); assay type: binding
# T2 construct: SK-N-MC and L6 cells expressing endogenous CGRP receptors; endogenous in cells; host or cells: SK-N-MC cell membranes
# T2 sequence (Q16602 23-461): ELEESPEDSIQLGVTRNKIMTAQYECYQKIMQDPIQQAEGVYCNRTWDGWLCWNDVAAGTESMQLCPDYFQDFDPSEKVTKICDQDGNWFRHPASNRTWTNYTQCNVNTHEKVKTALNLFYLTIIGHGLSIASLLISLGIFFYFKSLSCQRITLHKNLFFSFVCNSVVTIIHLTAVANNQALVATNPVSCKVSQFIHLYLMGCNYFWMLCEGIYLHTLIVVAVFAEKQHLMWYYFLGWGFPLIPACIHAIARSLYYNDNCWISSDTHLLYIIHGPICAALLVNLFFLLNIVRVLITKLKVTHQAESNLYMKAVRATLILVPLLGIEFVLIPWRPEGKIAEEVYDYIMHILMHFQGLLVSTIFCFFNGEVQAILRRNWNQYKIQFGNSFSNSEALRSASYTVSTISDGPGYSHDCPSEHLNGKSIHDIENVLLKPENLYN
# T2 sequence (O60894 27-148 partner): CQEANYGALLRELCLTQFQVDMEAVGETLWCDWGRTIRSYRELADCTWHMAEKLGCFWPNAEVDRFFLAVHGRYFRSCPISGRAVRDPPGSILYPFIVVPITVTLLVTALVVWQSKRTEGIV
# [8] = infusions in normal men; cited from earlier work
substance,measurement,setting,value
Amylin,1 Wk BW Loss,[1],0%
same,1 Wk BW Loss,"[2]; rat, in vivo",6%
same,FI Iinhib @ 8 hr,[3],0%
CCK8,percent inhibition of food intake,"[4]; mouse, in vivo",ns
DF(P-CH2SO3)MGWNMFGKR KCNTATCATQRLANELVRLQTYPRTNVGSNTY [SEQ ID NO: 398],IC50,GLP Receptor; read-out: IC50 in a GLP Receptor cyclase (RIN) assay,1000 nM
KCNTATCATQRLANFLVRSSNNLGPVLPPTNVGSNTY [rat amylin],percent inhibition of body weight,"[5]; infusion 30 nmol/kg/d, Day 2",1.9%
same,percent inhibition of body weight,"[5]; infusion 30 nmol/kg/d, Day 7",1.5%
same,percent inhibition of body weight,"[5]; infusion 30 nmol/kg/d, Day 14",2.1%
same,percent inhibition of body weight,"[5]; infusion 30 nmol/kg/d, Day 21",2.5%
same,percent inhibition of body weight,"[5]; infusion 30 nmol/kg/d, Day 28",2.2%
same,percent inhibition of body weight,"[5]; infusion 75 nmol/kg/d, Day 2",1.5%
same,percent inhibition of body weight,"[5]; infusion 75 nmol/kg/d, Day 7",1.4%
same,percent inhibition of body weight,"[5]; infusion 75 nmol/kg/d, Day 14",2.1%
same,percent inhibition of body weight,"[5]; infusion 100 nmol/kg/d, Day 2",1.6%
same,percent inhibition of body weight,"[5]; infusion 100 nmol/kg/d, Day 7",1.8%
same,percent inhibition of body weight,"[5]; infusion 100 nmol/kg/d, Day 14",3.1%
same,percent inhibition of body weight,"[5]; infusion 100 nmol/kg/d, Day 21",3.8%
same,percent inhibition of body weight,"[5]; infusion 100 nmol/kg/d, Day 28",4.4%
same,percent inhibition of body weight,"[5]; infusion 100 nmol/kg/d, Day 35",6.9%
same,percent inhibition of body weight,"[5]; infusion 100 nmol/kg/d, Day 42",8.6%
same,percent inhibition of body weight,"[5]; infusion 100 nmol/kg/d, Day 49",9.6%
same,percent inhibition of body weight,"[5]; infusion 100 nmol/kg/d, Day 63",10.3%
same,percent inhibition of body weight,"[5]; infusion 100 nmol/kg/d, Day 70",11.4%
same,percent inhibition of body weight,"[5]; infusion 100 nmol/kg/d, Day 77",12%
same,percent inhibition of body weight,"[5]; infusion 100 nmol/kg/d, Day 84",13.4%
same,percent inhibition of body weight,"[5]; infusion 300 nmol/kg/d, Day 2",1.1%
same,percent inhibition of body weight,"[5]; infusion 300 nmol/kg/d, Day 7",-0.7%
same,percent inhibition of body weight,"[5]; infusion 300 nmol/kg/d, Day 14",-0.9%
same,percent inhibition of body weight,"[5]; infusion 300 nmol/kg/d, Day 21",-1.5%
same,percent inhibition of body weight,"[5]; infusion 300 nmol/kg/d, Day 28",-1.5%
same,EC50,GLP Receptor; read-out: Receptor Activation GLP-1/GIP/CT cyclase,5 nM
same,%inhibition of gastric emptying,"[6]; 69 nmol/kg/d, 21 days on study",45%
same,%passed (acetaminophen),"[6]; 69 nmol/kg/d, 21 days on study",55%
same,%inhibition of gastric emptying,"[6]; 100 µg/kg/d, 26 days on study",24%
same,%passed (acetaminophen),"[6]; 100 µg/kg/d, 26 days on study",76%
same,percent inhibition of food intake,"[4]; 25 nmol/kg, 30 min",46%
same,percent inhibition of food intake,"[4]; 25 nmol/kg, 60 min",35%
same,percent inhibition of food intake,"[4]; 25 nmol/kg, 120 min",21%
same,percent inhibition of food intake,"[4]; 25 nmol/kg, 180 min",17%
same,percent inhibition of food intake,"[4]; 25 nmol/kg, 240 min",7%
same,percent inhibition of food intake,"[4]; 250 nmol/kg, 30 min",70%
same,percent inhibition of food intake,"[4]; 250 nmol/kg, 60 min",53%
same,percent inhibition of food intake,"[4]; 250 nmol/kg, 120 min",38%
same,percent inhibition of food intake,"[4]; 250 nmol/kg, 180 min",30%
same,percent inhibition of food intake,"[4]; 300 nmol/kg, 30 min",88%
same,percent inhibition of food intake,"[4]; 300 nmol/kg, 60 min",90%
same,percent inhibition of food intake,"[4]; 300 nmol/kg, 120 min",51%
same,percent inhibition of food intake,"[4]; 300 nmol/kg, 180 min",21%
same,60 min ED50,"[4]; Mouse Food Intake, 60 min",9 nmol/kg
same,IC50,calcitonin receptor; read-out: Receptor Binding CT,3 nM
same,"%Reduction of blood glucose, OGTT, 30","[7]; 23 nmol/kg/d, day 26",2.3%
same,"%Reduction of blood glucose, OGTT, 60","[7]; 23 nmol/kg/d, day 26",19.2%
same,"%Reduction of blood glucose, OGTT, 120","[7]; 23 nmol/kg/d, day 26",2.1%
same,"%Reduction of blood glucose, OGTT, Basal","[7]; 23 nmol/kg/d, day 26",4%
same,"%Reduction of blood glucose, OGTT, 15","[7]; 69 nmol/kg/d, day 14",-0.2%
same,"%Reduction of blood glucose, OGTT, 30","[7]; 69 nmol/kg/d, day 14",11%
same,"%Reduction of blood glucose, OGTT, 60","[7]; 69 nmol/kg/d, day 14",5.9%
same,"%Reduction of blood glucose, OGTT, 120","[7]; 69 nmol/kg/d, day 14",1.2%
same,"%Reduction of blood glucose, OGTT, Basal","[7]; 69 nmol/kg/d, day 14",6%
same,percent inhibition of body weight,"[2]; infusion 0.7 nmol/kg/d, Day 7",1.6%
same,percent inhibition of body weight,"[2]; infusion 0.7 nmol/kg/d, Day 14",1.3%
same,percent inhibition of body weight,"[2]; infusion 0.7 nmol/kg/d, Day 21",1.6%
same,percent inhibition of body weight,"[2]; infusion 0.7 nmol/kg/d, Day 28",2.1%
same,percent inhibition of body weight,"[2]; infusion 7 nmol/kg/d, Day 7",5.7%
same,percent inhibition of body weight,"[2]; infusion 7 nmol/kg/d, Day 14",7.3%
same,percent inhibition of body weight,"[2]; infusion 7 nmol/kg/d, Day 21",7.9%
same,percent inhibition of body weight,"[2]; infusion 7 nmol/kg/d, Day 28",8.3%
same,percent inhibition of body weight,"[2]; infusion 18.4 nmol/kg/d, Day 7",5.9%
same,percent inhibition of body weight,"[2]; infusion 18.4 nmol/kg/d, Day 14",7.5%
same,percent inhibition of body weight,"[2]; infusion 18.4 nmol/kg/d, Day 21",6.7%
same,percent inhibition of body weight,"[2]; infusion 18.4 nmol/kg/d, Day 28",6.5%
same,percent inhibition of body weight,"[2]; infusion 23 nmol/kg/d, Day 7",7.8%
same,percent inhibition of body weight,"[2]; infusion 23 nmol/kg/d, Day 14",9.4%
same,percent inhibition of body weight,"[2]; infusion 23 nmol/kg/d, Day 21",8.8%
same,percent inhibition of body weight,"[2]; infusion 23 nmol/kg/d, Day 28",8.8%
same,percent inhibition of body weight,"[2]; infusion 23 nmol/kg/d, Day 35",9.5%
same,percent inhibition of body weight,"[2]; infusion 23 nmol/kg/d, Day 42",10%
same,percent inhibition of body weight,"[2]; infusion 23 nmol/kg/d, Day 49",9.8%
same,percent inhibition of body weight,"[2]; infusion 23 nmol/kg/d, Day 56",9.1%
same,percent inhibition of body weight,"[2]; infusion 69 nmol/kg/d, Day 7",7.6%
same,percent inhibition of body weight,"[2]; infusion 69 nmol/kg/d, Day 14",9.3%
same,percent inhibition of body weight,"[2]; infusion 69 nmol/kg/d, Day 21",11.1%
same,percent inhibition of body weight,"[2]; infusion 69 nmol/kg/d, Day 28",12.2%
same,percent inhibition of body weight,"[2]; infusion 69 nmol/kg/d, Day 49",15.4%
same,percent inhibition of body weight,"[2]; infusion 69 nmol/kg/d, Day 56",15.7%
same,percent inhibition of body weight,"[2]; infusion 69 nmol/kg/d, Day 63",16.2%
same,percent inhibition of body weight,"[2]; infusion 69 nmol/kg/d, Day 70",15.8%
same,percent inhibition of body weight,"[2]; infusion 70 nmol/kg/d, Day 7",7.6%
same,percent inhibition of body weight,"[2]; infusion 70 nmol/kg/d, Day 14",8.9%
same,percent inhibition of body weight,"[2]; infusion 70 nmol/kg/d, Day 21",10.2%
same,percent inhibition of body weight,"[2]; infusion 70 nmol/kg/d, Day 28",11.8%
"[Ser117, dLeu119]leptin(116-122)-Amylin(1-7)-[^11,18Arg]sCT(8-27)-Amylin(33-37) [Compound 16]","cumulative intake, % that of controls","[4]; mouse, in vivo",34-38%
same,binding to the CT receptor (RBA = receptor binding assay),calcitonin receptor,bound
same,activation of the CT receptor (C1A assay),CT receptor,able to activate
same,binding to the CGRP receptor (RBA = receptor binding assay),CGRP receptors,some binding
brain natriuretic peptide [BNP],increase in sodium excretion,[8],2 fold
same,"reduction in plasma renin, angiotensin II and aldosterone secretion",[8],50%
